From patent US11213508B2, “Compositions comprising urolithins and uses thereof for the stimulation of insulin secretion” (Centre National de la Recherche Scientifique (CNRS), priority 2013, dated 2022)
Several values for one entry are separate records, joined by “and”; a condition that tells them apart may be missing. Equal values may be shown once.

How the values were obtained:
[1] = system: INS-1 insulin-secreting β-cells; assay: Glucose (8.3 mmol·L^−1)-stimulated insulin secretion in INS-1 cells (HTRF insulin assay); assay type: cell-based; details: 8.3 mmol·L^−1 glucose; for activity at 2 µM / activity at 20 µM: Rattus norvegicus, INS1, 1 h, read-out: % control response (glucose-stimulated insulin secretion); for activity at 2 µM / activity at 20 µM / % control response (glucose-stimulated insulin secretion): control = glucose alone
Experimental: Cells were seeded in 24-well plates (4×10^5 cells per well) and were used for experiments after 5 days of culture.
(§1) Cells were incubated for 1 h (5% CO2, 37° C.) in KRB medium containing 8.3 mmol·L^−1 glucose (glucose-stimulated secretion) in the presence or absence of the compounds tested. At the end of the 1 h incubation period, the medium was sampled and stored at −20° C. until the insulin assay. Insulin concentration in cell supernatants was determined using the homogeneous time resolved fluorescence technology (HTRF), according to the manufacturer's instructions (HTRF insulin assay kit, Cisbio International, Bagnols-sur-Ceze, France). Briefly, two anti-insulin antibodies were used; one labelled with Eu^3+-Cryptate and one labelled with XL665 recognizing distinct epitopes. When these two fluorophores bind to insulin molecules, the two antibodies come into close proximity, allowing fluorescence resonance energy transfer (FRET) to occur between the Eu^3+-Cryptate and the XL665. This FRET increases proportionally with the insulin concentrations. All the experiments were performed at least in quadruplicate.
For the determination of insulin secretion, cells were incubated for 1 h (5% CO2, 37° C.) in KRB medium containing either 1.4 mmol·L^−1 glucose (low-glucose) or 8.3 mmol·L^−1 glucose (glucose-stimulated secretion) in the presence or absence of the compounds tested. At the end of the 1 h incubation period, mediums were sampled and stored at −20° C. until the insulin assay.

[2] = system: INS-1 insulin-secreting β-cells; details: Youl et al., 2010; cited from earlier work
[3] = system: INS-1 insulin-secreting β-cells; assay: Glibenclamide-stimulated insulin secretion in INS-1 cells; assay type: cell-based; details: glibenclamide 0.01 μmol·L^−1
Experimental: The insulin-secreting cell line INS-1 (a gift from Professor C. B. Wollheim) was cultured in RPMI-1640, supplemented with 10% fetal calf serum (FCS), 100 U·mL^−1 penicillin, 100 μg·mL^−1 streptomycin, 2 mmol·L^−1 L-glutamine, 10 mmol·L^−1 HEPES, 1 mmol·L^−1 sodium pyruvate, and […] 2-mercaptoethanol, as previously described by Youl et al. (2010). Cells were seeded in 24-well plates (4×10^5 cells per well) and were used for experiments after 5 days of culture.
as §1, with “Before the treatment, RPMI medium was removed and the cells were washed twice with HEPES-balanced Krebs-Ringer bicarbonate buffer (KRB) containing (in mmol·L^−1): 123 NaCl, 5.4 KCl, 1.3 KH2PO4, 2.7 MgSO4, 2.9 CaCl2, 5 NaHCO3 and 20 HEPES, pH 7.5, with 2 g·L^−1 bovine serum albumin (KRB/BSA). Cells” for “Cells”
Material and methods were the same as described in example 1. For the determination of insulin secretion, cells were incubated for 1 h (5% CO2, 37° C.) in KRB medium containing 1.4 mmol·L^−1 glucose (low-glucose condition) and 0.01 μmol·L^−1 glibenclamide (glibenclamide-stimulated secretion), in the presence or absence of urolithins. At the end of the 1 h incubation period, the medium was sampled and stored at −20° C. until the insulin assay. Insulin concentration in cell supernatants was determined as described in Example 1.

## O=C(O)CCc1cccc(O)c1 [3-(3′-hydroxyphenyl)propionic acid]
[1]; compound 2 μM
  activity at 2 µM: 98%
[1]; compound 20 μM
  activity at 20 µM: 103%

## COc1c(O)cc(C(=O)O)cc1O [4-O-Methylgallic acid]
[1]; compound 2 μM
  activity at 2 µM: 104%
[1]; compound 20 μM
  activity at 20 µM: 86%

## O=c1c(O)c(-c2ccc(O)c(O)c2)oc2cc(O)cc(O)c12 [Quercetin, reference compound]
[2]
  prevention of H2O2-induced insulin secretion impairment: able to prevent H2O2-induced insulin secretion impairment
[1]; compound 2 μM
  activity at 2 µM: 93.8%
[1]; compound 20 μM
  activity at 20 µM: 237%

## O=C(O)CCc1ccc(O)c(O)c1 [Dihydrocaffeic acid]
[1]; compound 2 μM
  activity at 2 µM: 110%
[1]; compound 20 μM
  activity at 20 µM: 83%

## COc1cc(/C=C/C(=O)NCC(=O)O)ccc1O [Feruloylglycine]
[1]; compound 2 μM
  activity at 2 µM: 102%
[1]; compound 20 μM
  activity at 20 µM: 102%

## COc1ccc(/C=C/C(=O)NCC(=O)O)cc1O [Isoferuloylglycine]
[1]; compound 2 μM
  activity at 2 µM: 80%
[1]; compound 20 μM
  activity at 20 µM: 82%

## COc1cc(/C=C/C(=O)O)ccc1O [Ferulic acid]
[1]; compound 2 μM
  activity at 2 µM: 109%
[1]; compound 20 μM
  activity at 20 µM: 115%

## CC(=O)N[C@@H](CS)C(=O)O [N-acetyl cysteine]
[2]
  prevention of H2O2-induced insulin secretion impairment: not

## O=C(O)Cc1ccc(O)c(O)c1 [3,4-dihydroxyphenylacetic acid]
[1]; compound 2 μM
  activity at 2 µM: 105%
[1]; compound 20 μM
  activity at 20 µM: 84%

## O=C(O)Cc1cccc(O)c1 [3-hydroxyphenylacetic acid]
[1]; compound 2 μM
  activity at 2 µM: 98%
[1]; compound 20 μM
  activity at 20 µM: 104%

## Oc1cccc(O)c1O [Pyrogallol]
[1]; compound 2 μM
  activity at 2 µM: 93%
[1]; compound 20 μM
  activity at 20 µM: 98%

## Oc1ccccc1O [Pyrocatechol]
[1]; compound 2 μM
  activity at 2 µM: 87%
[1]; compound 20 μM
  activity at 20 µM: 96%

## Oc1ccc(C=Cc2cc(O)cc(O)c2)cc1 [resveratrol]
[2]
  prevention of H2O2-induced insulin secretion impairment: not

## COc1cc(C(=O)O)cc(O)c1O [3-O-Methylgallic acid]
[1]; compound 2 μM
  activity at 2 µM: 93%
[1]; compound 20 μM
  activity at 20 µM: 105%

## O=C(O)C(O)Cc1ccc(O)cc1 (stereo not drawn) [3-(4′-hydroxyphenyl)lactic acid]
[1]; compound 2 μM
  activity at 2 µM: 97%
[1]; compound 20 μM
  activity at 20 µM: 79%

## O=C(O)C(O)c1ccc(O)cc1 (stereo not drawn) [4′hydroxymandelic acid]
[1]; compound 2 μM
  % control response (glucose-stimulated insulin secretion): 103.00%
[1]; compound 20 μM
  % control response (glucose-stimulated insulin secretion): 86.00%

## O=C(O)[C@H]1O[C@@H](Oc2c(-c3ccc(O)cc3)oc3cc(O)cc(O)c3c2=O)[C@H](O)[C@@H](O)[C@@H]1O [Kaempferol-3 -glucuronide]
[1]; compound 2 μM
  % control response (glucose-stimulated insulin secretion): 111.00%
[1]; compound 20 μM
  % control response (glucose-stimulated insulin secretion): 104.00%

## OCCc1ccc(O)cc1 [Tyrosol]
[1]; compound 2 μM
  activity at 2 µM: 86%
[1]; compound 20 μM
  activity at 20 µM: 89%

## O=C(O)CNC(=O)c1ccc(O)cc1 [4′-hydroxyhippuric acid]
[1]; compound 2 μM
  % control response (glucose-stimulated insulin secretion): 98.00%
[1]; compound 20 μM
  % control response (glucose-stimulated insulin secretion): 111.00%

## O=C(O)[C@H]1O[C@@H](Oc2c(-c3ccc(O)c(O)c3)oc3cc(O)cc(O)c3c2=O)[C@H](O)[C@@H](O)[C@@H]1O [Quercetin-3 -glucuronide]
[1]; compound 2 μM
  % control response (glucose-stimulated insulin secretion): 89.00%
[1]; compound 20 μM
  % control response (glucose-stimulated insulin secretion): 103.00%

## O=C(O)Cc1ccc(O)cc1 [4′-hydroxyphenylacetic acid]
[1]; compound 2 μM
  % control response (glucose-stimulated insulin secretion): 102.00% and 107.00%
[1]; compound 20 μM
  % control response (glucose-stimulated insulin secretion): 74.00% and 81.00%

## O=C(O)c1ccc(O)c(O)c1 [Protocatechuic acid]
[1]; compound 2 μM
  activity at 2 µM: 108%
[1]; compound 20 μM
  activity at 20 µM: 92%

## O=C(O)c1ccc(O)cc1 [4-hydroxybenzoic acid]
[1]; compound 2 μM
  activity at 2 µM: 96%
[1]; compound 20 μM
  activity at 20 µM: 98%

## O=c1oc2c(O)c(O)cc3c(=O)oc4c(O)c(O)cc1c4c23 [Ellagic acid, reference compound]
[1]; compound 2 μM
  activity at 2 µM: 93.4%
[1]; compound 20 μM
  activity at 20 µM: 101%
[1]; blind screening, 2 and 20 μM
  ability to amplify glucose-stimulated insulin secretion: not active

## COc1cc(CC(=O)O)ccc1O [Homovanillic acid]
[1]; compound 2 μM
  activity at 2 µM: 93%
[1]; compound 20 μM
  activity at 20 µM: 83%

## O=C(O)/C=C/c1ccc(O)c(O)c1 [Caffeic acid]
[1]; compound 2 μM
  activity at 2 µM: 104%
[1]; compound 20 μM
  activity at 20 µM: 105%

## COc1ccc(Cl)cc1C(=O)NCCc1ccc(S(=O)(=O)NC(=O)NC2CCCCC2)cc1 [glibenclamide, reference compound]
[3]
  increase of secretion as compared to low-glucose condition: 4/6

## COc1cc(CCC(=O)O)ccc1O [Dihydroferulic acid]
[1]; compound 2 μM
  activity at 2 µM: 106%
[1]; compound 20 μM
  activity at 20 µM: 103%

## Oc1cc(O)cc(O)c1 [Phloroglucinol]
[1]; compound 2 μM
  activity at 2 µM: 100%
[1]; compound 20 μM
  activity at 20 µM: 105%
